# From patent US9668477B2, “Active compound combinations” (BAYER CROPSCIENCE AG, priority 2012, dated 2017)
# Like-named read-outs stand apart in the source and are kept apart here.
# How the values were obtained:
# Assay type in all cases: in vivo
# Venturia inaequalis = assay: Venturia test (apples)/preventive; conditions: Table I1, 10 days after inoculation
# Method: (§1) Solvent: 24.5 parts by weight of acetone • 24.5 parts by weight of dimethylacetamide Emulsifier: 1 part by weight of alkylaryl polyglycol ether To produce a suitable preparation of active compound, 1 part by weight of active compound is mixed with the stated amounts of solvent and emulsifier, and the concentrate is diluted with water to the desired concentration. To test for preventive activity, young plants are sprayed with the preparation of active compound at the stated rate of application.
# Uromyces appendiculatus = assay: Uromyces test (beans)/preventive; conditions: 10 days after inoculation
# Method: (§2) Solvent: 24.5 parts by weight of acetone • 24.5 parts by weight of dimethylacetamide
# (§3) Emulsifier: 1 part by weight of alkylaryl polyglycol ether
# (§4) To produce a suitable preparation of active compound, 1 part by weight of active compound is mixed with the stated amounts of solvent and emulsifier, and the concentrate is diluted with water to the desired concentration.
# To test for preventive activity, young plants are sprayed with the preparation of active compound at the stated rate of application. After the spray coating has dried on, the plants are inoculated with an aqueous spore suspension of the causal agent of bean rust (Uromyces appendiculatus) and then remain for 1 day in an incubation cabinet at approximately 20° C. and a relative atmospheric humidity of 100%.
# The plants are then placed in a greenhouse at approximately 21° C. and a relative atmospheric humidity of approximately 90%.
# The test is evaluated 10 days after the inoculation. 0% means an efficacy which corresponds to that of the untreated control, while an efficacy of 100% means that no disease is observed.
# Leptosphaeria nodorum = Leptosphaeria nodorum test (wheat)/preventive; conditions: Table C1; 160 ppm a.i.; 8 days after inoculation
# Method: Solvent: 49 parts by weight of N,N-dimethylacetamide Emulsifier: 1 part by weight of alkylaryl polyglycol ether To produce a suitable preparation of active compound, 1 part by weight of active compound or active compound combination is mixed with the stated amounts of solvent and emulsifier, and the concentrate is diluted with water to the desired concentration. To test for preventive activity, young plants are sprayed with the preparation of active compound or active compound combination at the stated rate of application. After the spray coating has been dried, the plants are sprayed with a spore suspension of Leptosphaeria nodorum.
# Alternaria solani = assay: Alternaria test (tomatoes)/preventive; conditions: 3 days after inoculation
# Method: as §2, §3, §4
# To test for preventive activity, young plants are sprayed with the preparation of active compound at the stated rate of application. After the spray coating has dried on, the plants are inoculated with an aqueous spore suspension of Alternaria solani. The plants are then placed in an incubation cabinet at approximately 20° C. and a relative atmospheric humidity of 100%.
# The test is evaluated 3 days after the inoculation. 0% means an efficacy which corresponds to that of the untreated control while an efficacy of 100% means that no disease is observed.
# Sphaerotheca fuliginea = assay: Sphaerotheca test (cucumbers)/preventive; conditions: Table G1, 7 days after inoculation
# Method: as §1, with “application. After the spray coating has dried on, the plants are inoculated with an aqueous spore suspension of Sphaerotheca fuliginea.” for “application.”
# Phakopsora pachyrhizi = assay: Phakopsora test (soybeans)/preventive; conditions: Phakopsora pachyrhizi, 168 h, 7 days after inoculation, read-out: Efficacy in % found; for pest or weed control at 0.25 ppm: 0.25 ppm a.i.
# [1] = tested on: Blumeria graminis f.sp. hordei; assay: Blumeria test (barley)/preventive; conditions: Table B1; 160 ppm a.i.; 7 days after inoculation
# Method: Solvent: 49 parts by weight of N,N-dimethylacetamide Emulsifier: 1 part by weight of alkylaryl polyglycol ether To produce a suitable preparation of active compound, 1 part by weight of active compound or active compound combination is mixed with the stated amounts of solvent and emulsifier, and the concentrate is diluted with water to the desired concentration. To test for preventive activity, young plants are sprayed with the preparation of active compound or active compound combination at the stated rate of application. After the spray coating has been dried, the plants are dusted with spores of Blumeria graminis f.sp. hordei.
# Pyrenophora teres = assay: Pyrenophora teres-test (barley)/preventive; conditions: Table F1; 160 ppm a.i.; 8 days after inoculation
# Method: (§5) Solvent: 49 parts by weight of N,N-dimethylacetamide
# as §3
# (§6) To produce a suitable preparation of active compound, 1 part by weight of active compound or active compound combination is mixed with the stated amounts of solvent and emulsifier, and the concentrate is diluted with water to the desired concentration.
# (§7) To test for preventive activity, young plants are sprayed with the preparation of active compound or active compound combination at the stated rate of application.
# After the spray coating has been dried, the plants are sprayed with a spore suspension of Pyrenophora teres. The plants remain for 48 hours in an incubation cabinet at approximately 20° C. and a relative atmospheric humidity of approximately 100%.
# (§8) The plants are placed in the greenhouse at a temperature of approximately 20° C. and a relative atmospheric humidity of approximately 80%.
# (§9) The test is evaluated 8 days after the inoculation. 0% means an efficacy which corresponds to that of the untreated control, while an efficacy of 100% means that no disease is observed.
# Puccinia triticina = assay: Puccinia triticina-test (wheat)/preventive; conditions: Table E1, 8 days after inoculation
# Method: as §5, §3, §6, §7
# After the spray coating has been dried, the plants are sprayed with a spore suspension of Puccinia triticina. The plants remain for 48 hours in an incubation cabinet at approximately 20° C. and a relative atmospheric humidity of approximately 100%.
# as §8, §9
smiles,measurement,setting,value
CCN(C)/C=N/c1cc(C)c(Oc2ccccc2)cc1C [(Id)],Efficacy in % found,Venturia inaequalis; 0.25 ppm a.i.,0%
same,Efficacy in % found,Venturia inaequalis; 0.5 ppm a.i.,0%
same,Efficacy in % found,Venturia inaequalis; 1 ppm a.i.,0%
same,Efficacy in % found,"Uromyces appendiculatus; Table H1, 0.1 ppm a.i.",25%
same,Efficacy in % found,"Uromyces appendiculatus; Table H1, 0.25 ppm a.i.",60%
same,Efficacy in % found,"Uromyces appendiculatus; Table H2, 0.2 ppm a.i.",0%
same,Efficacy in % found,"Uromyces appendiculatus; Table H3, 0.125 ppm a.i.",0%
same,Efficacy in % found,"Uromyces appendiculatus; Table H3, 0.25 ppm a.i.",0%
same,Efficacy in % found,Leptosphaeria nodorum,50%
same,Efficacy in % found,"Alternaria solani; Table A1, 0.25 ppm a.i.",0%
same,Efficacy in % found,"Alternaria solani; Table A1, 0.5 ppm a.i.",24%
same,Efficacy in % found,"Alternaria solani; Table A1, 1 ppm a.i.",18%
same,Efficacy in % found,"Alternaria solani; Table A2, 0.5 ppm a.i.",0%
same,Efficacy in % found,"Alternaria solani; Table A2, 1 ppm a.i.",11%
same,Efficacy in % found,Sphaerotheca fuliginea; 0.25 ppm a.i.,0%
same,Efficacy in % found,Sphaerotheca fuliginea; 0.5 ppm a.i.,0%
same,Efficacy in % found,Sphaerotheca fuliginea; 1.25 ppm a.i.,10%
same,pest or weed control at 0.25 ppm,Phakopsora pachyrhizi; Table D1,28%
same,pest or weed control at 0.5 ppm,"Phakopsora pachyrhizi; Table D1, 0.5 ppm a.i.",40%
same,pest or weed control at 1 ppm,"Phakopsora pachyrhizi; Table D1, 1 ppm a.i.",70%
same,pest or weed control at 0.25 ppm,Phakopsora pachyrhizi; Table D2,45%
same,Efficacy in % found,[1],60%
same,Efficacy in % found,Pyrenophora teres,13%
same,Efficacy in % found,Puccinia triticina; 80 ppm a.i.,70%
same,Efficacy in % found,Puccinia triticina; 160 ppm a.i.,80%
